Assays:
Dvl PDZ domain = molecular target: T1, Dvl PDZ domain (Homo sapiens, UniProt O14640); assay: NMR titration (1H-15N-HSQC); format: binding
T1 construct: plasmid DNA encoding Dvl-1247- 341 (the Dvl PDZ domain); His-tag (TEV-cleavable) (cleaved yes); made in house; host or cells: E. coli BL21 (DE3)
T1 sequence (O14640 247-341 limits assumed): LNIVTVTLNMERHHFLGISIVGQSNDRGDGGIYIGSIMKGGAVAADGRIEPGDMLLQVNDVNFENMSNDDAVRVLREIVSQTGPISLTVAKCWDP
Description: For NMR titration, ^1H‐^15N‐heteronuclear single‐quantum coherence spectroscopy (HSQC) was performed using various molar ratios of ^15N‐labeled Dvl PDZ domain relative to the DBM peptide, KY‐02061, or KY‐02327. For the Dvl PDZ domain and DBM titration, the molar ratios of ^15N‐labeled Dvl PDZ domain to peptide ligand were 1:5, 1:10, 1:15, 1:20, and 1:25. For the Dvl PDZ domain and KY‐02061 titration, the molar ratios were 1:10, 1:20, 1:40, 1:60, and 1:80. For the Dvl PDZ domain and KY‐02327 titration, the molar ratios were 1:0, 1:5, 1:10, and 1:20. All spectra were processed using XWINNMR (Bruker Biospin Corp., Billerica, MA) and NMRpipe/NMRDraw software (Delaglio et al, 1995). Using the Sparky program, all residues in each spectrum were completely assigned, and the chemical shift perturbations were calculated using the equation ΔδAV = ((Δδ1H)^2 + (Δδ15N/5)^2)^1/2, where ΔδAV, Δδ1H, and Δδ15N are the average, proton, and ^15N chemical shift changes, respectively. The residues showing ΔδAV > 0.05 were selected as residues participating in the interaction.
Dvl PDZ domain purification
E. coli strain BL21 (DE3) was transformed with plasmid DNA encoding Dvl-1247-341 (the Dvl PDZ domain), and the cells were grown in M9 minimal medium containing 15N isotope for 17 hours at 21°C and after then 1 mM isopropyl-1-thio-β -D-thiogalactopyranoside was treated. […]

Wnt/β‐catenin pathway = assay: TOPflash reporter assay; format: cell-based, murine; conditions: MC3T3E1 cells, 2 days
Description: Figure 3 Effect of KY‐02061 on Wnt/β‐catenin pathway, osteoblast differentiation, and ex vivo‐cultured calvaria growth • A MC3T3E1 cells were transfected with pTOPFLASH together with pCMV‐β‐gal. After 24 h, the cells were treated with DMSO, KY‐02061 in DMSO, or 5 μM PolyR‐DBM for 2 days. The luciferase activities of whole‐cell lysates were measured and normalized with β‐galactosidase activities. (n = 3) • B Primary calvaria cells were isolated from the calvariae of 4‐day‐old mice (Manton et al, 2007) and treated with DMSO or KY‐02061 in DMSO for 4 days. ALP activity levels were visualized by ALP staining. • C Primary calvaria cells were treated with DMSO or 5 μM KY‐02061 in DMSO for 14 days. […] The calvaria thicknesses were measured from the stained sections using Image Pro software (E). […] (error bars), and significance was assessed using unpaired Student's t‐test.
Figure 5 Effects of KY‐02327 on Wnt/β‐catenin pathway and osteoblast differentiation in osteoblasts • A MC3T3E1 cells were transfected with pTOPFLASH together with pCMV‐β‐gal. […] The luciferase activities of whole‐cell lysates were measured and normalized with β‐galactosidase activities. (n = 3) • B, C MC3T3E1 cells were treated with indicated concentrations of KY‐02327 for 2 days. β‐Catenin and α‐tubulin were detected by immunoblot (B) or immunofluorescence (C) analyses. […] The mRNA level of osteocalcin (OCN) was measured by qRT–PCR. […]

[1] = Metabolic stability, rat liver microsomes; format: in vitro ADME
[2] = Metabolic stability, human hepatocytes; format: in vitro ADME

CCOC(=O)Cn1c(C(=O)OCC)cc2cc(OS(=O)(=O)c3ccc(C)cc3)ccc21 [KY‐02061]
residues of Dvl PDZ domain perturbed (chemical shift change > 0.05) (Dvl PDZ domain): one residue in βB (S265) and three residues in αB (L321, R322, and V325) were perturbed
activation of the Wnt/β‐catenin pathway (TOPflash luciferase) (Wnt/β‐catenin pathway): increased
Metabolic Stability (%) Rat [1]: 5.1 ± 2.4%
metabolic stability (in words) [1]: poor metabolic stability
Metabolic Stability (%) Human [2]: 25.2 ± 3%
metabolic stability (in words) [2]: poor metabolic stability

CCOC(=O)c1cc2cc(O)ccc2n1CC(=O)NCCN1CCCCC1 [KY‐02327]
residues of Dvl PDZ domain perturbed (chemical shift change > 0.05) (Dvl PDZ domain): one residue in βA (I250) and three residues in αB (V318, R322, and V325) of Dvl PDZ were perturbed
activation of the Wnt/β‐catenin pathway (TOPflash luciferase) (Wnt/β‐catenin pathway): dose‐dependent effect
Metabolic Stability (%) Rat [1]: 11.9%
stability, fold more stable than KY‐02061 [1]: 2.3 fold
stability, fold more stable than KY‐02061 [2]: 1.3 fold

Reference: PMC4818757, “Small molecule inhibitors of the Dishevelled‐CXXC5 interaction are new drug candidates for bone anabolic osteoporosis therapy” (EMBO Molecular Medicine, 2016)
